According to US20020119506A1, “Genes encoding UMP kinase, methods for purifying UMP kinase and methods of characterizing UMP kinase” (INSTITUT PASTEUR, priority 2000, published 2002):
Entries after “also recorded” stand apart in the source; their conditions may differ. Like-named read-outs stand apart in the source and are kept apart here.

Legend:
[1] = biological target: T1, UMP kinase from B. subtilis (Bacillus subtilis, UniProt O31749); test: UMP kinase activity, coupled spectrophotometric assay; type: biochemical
T1 sequence (O31749 1-240): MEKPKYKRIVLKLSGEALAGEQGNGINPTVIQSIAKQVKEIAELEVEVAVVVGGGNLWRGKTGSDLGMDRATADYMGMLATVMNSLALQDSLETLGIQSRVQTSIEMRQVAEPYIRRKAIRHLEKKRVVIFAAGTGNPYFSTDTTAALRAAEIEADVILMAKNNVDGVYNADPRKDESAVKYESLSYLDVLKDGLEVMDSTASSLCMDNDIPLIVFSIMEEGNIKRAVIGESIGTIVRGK
Method: Purification of UMP kinase and activity assays. E. coli overproducing the UMP kinase from B. subtilis was disrupted by sonication in 50 mM Tris-HCl (pH 7.4) and 2 mM UTP. The bacterial extract was heated for 10 min at 65° C., then the precipitated proteins were removed by centrifugation at 10,000 g for 30 min. The supernatant was concentrated by ultrafiltration to about 10 mg of protein/ml, then applied to a Sephacryl S-300 HR column (2.5×110 cm) equilibrated with 50 mM Tris-HCl (pH 7.4), 0.1 M NaCl and 2 mM UTP at a flow rate of 10 ml/h. […] Fractions of 1 ml of protein solution were sampled in Eppendorf tubes and stored at different temperatures between 20° C. and −80° C. The UMP kinase activity was determined at 30° C. using a coupled spectrophotometric assay (0.5 ml final volume) on an Eppendorf PCP6121 photometer [Blondin, 1994 #977]. The “standard” reaction medium contained 50 mM Tris-HCl (pH 7.4), 50 mM KCl, 2 mM MgCl2, 1 mM phosphoenolpyruvate, 0.2 mM NADH, 2 mM ATP, 0.5 mM GTP and 2 units each of lactate dehydrogenase, pyruvate kinase and NDP kinase. The crude or pure preparation of UMP kinase was then added, followed two minutes later by 1.3 mM UMP. The decrease in absorbance at 334 nm (between 0.03 and 0.3/min) was then recorded and corrected for secondary reactions, occurring in the absence of UMP. One unit of UMP kinase corresponds to 1 μmol of product formed per min.
The UMP kinase activity was determined at 30° C. using a coupled spectrophotometric assay (0.5 ml final volume) on an Eppendorf PCP6121 photometer. The “standard” reaction medium contained 50 mM Tris-HCl (pH 7.4), 50 mM KCl, 2 mM MgCl2, 1 mM phosphoenolpyruvate, 0.2 mM NADH, 1 or 2 mM ATP, 0.5 mM GTP and 2 units each of lactate dehydrogenase, pyruvate kinase and NDP kinase. The pure preparation of UMP kinase was then added, followed by 0.3 or 1 mM UMP. The decrease in absorbance at 334 nm (between 0.03 and 0.3/min) was then recorded and corrected for secondary reactions occurring in the absence of UMP. One unit of UMP kinase corresponds to 1 μmol of product formed per min.

[2] = biological target: UMP kinase from H. influenzae (Haemophilus influenzae, UniProt P43890); test: as above; type: biochemical
Chain of UMP kinase from H. influenzae (P43890 whole entry): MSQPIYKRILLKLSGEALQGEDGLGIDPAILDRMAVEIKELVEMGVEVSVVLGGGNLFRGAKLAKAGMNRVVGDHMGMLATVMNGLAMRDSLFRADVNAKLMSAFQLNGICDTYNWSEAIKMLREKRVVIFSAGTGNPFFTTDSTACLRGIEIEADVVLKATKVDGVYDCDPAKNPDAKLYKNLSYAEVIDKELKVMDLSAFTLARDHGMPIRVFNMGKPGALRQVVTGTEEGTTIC
Method: The UMP kinase activity was determined at 30° C. using a coupled spectrophotometric assay (0.5 ml final volume) on an Eppendorf PCP6121 photometer. The “standard” reaction medium contained 50 mM Tris-HCl (pH 7.4), 50 mM KCl, 2 mM MgCl2, 1 mM phosphoenolpyruvate, 0.2 mM NADH, 1 or 2 mM ATP, 0.5 mM GTP and 2 units each of lactate dehydrogenase, pyruvate kinase and NDP kinase. The pure preparation of UMP kinase was then added, followed by 0.3 or 1 mM UMP. The decrease in absorbance at 334 nm (between 0.03 and 0.3/min) was then recorded and corrected for secondary reactions occurring in the absence of UMP. One unit of UMP kinase corresponds to 1 μmol of product formed per min. The specific activities of the recombinant enzymes are the following: […]

[3] = biological target: T2, UMP kinase from M. tuberculosis (Mycobacterium tuberculosis, UniProt P9WHK5); type: biochemical
T2 sequence (P9WHK5 whole entry): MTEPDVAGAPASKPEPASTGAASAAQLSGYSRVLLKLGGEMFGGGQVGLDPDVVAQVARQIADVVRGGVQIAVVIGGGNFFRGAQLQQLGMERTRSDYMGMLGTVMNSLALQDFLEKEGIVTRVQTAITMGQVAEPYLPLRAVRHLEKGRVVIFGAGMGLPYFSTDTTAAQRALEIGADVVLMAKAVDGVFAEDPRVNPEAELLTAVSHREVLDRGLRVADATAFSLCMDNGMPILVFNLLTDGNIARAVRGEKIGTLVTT

E. coli UMP kinase [4] = biological target: E. coli UMP kinase (Escherichia coli, UniProt P0A7E9); conditions: cited from earlier work
[5] = biological target: T1, UMP kinase from B. subtilis; test: Thermal stability of UMP kinase (FIG. 1)
Method: UMP kinase from B. subtilis overproduced in strain BL21 (DE3)/pDIA17 (over 30% of total E. coli proteins) was recovered in the supernatant after cell breakage in 50 mM Tris-HCl (pH 7.4) and centrifugation. The activity of recombinant UMP kinase declined rapidly upon storage at either room temperature, +4° C. or under frozen state. After 24 h, only 15% of initial UMP kinase activity was recovered. EDTA, thiols, bovine serum albumin, or antiprotease compounds alone or in mixture were ineffective. […] UTP increased the thermal stability of bacterial UMP kinase (FIG. 1), the half maximal inactivation being shifted from 42° C. in the absence of UTP to over 70° C. in the presence of nucleotide.

[6] = biological target: T1, UMP kinase from B. subtilis; conditions: for stabilization of UMP kinase activity on storage (in words): crude bacterial extract, UTP ≧2 mM, ATP and GTP 2 mM each, various temperatures
[7] = biological target: T2, UMP kinase from M. tuberculosis; conditions: in the presence of UTP
E. coli UMP kinase [8] = biological target: T3, E. coli UMP kinase (Escherichia coli, UniProt P0A7E9); test: UMP kinase activity and activation by guanine nucleotides (comparison enzyme); type: biochemical; conditions: under identical conditions (presence of GTP)
T3 sequence (P0A7E9 whole entry, looked up): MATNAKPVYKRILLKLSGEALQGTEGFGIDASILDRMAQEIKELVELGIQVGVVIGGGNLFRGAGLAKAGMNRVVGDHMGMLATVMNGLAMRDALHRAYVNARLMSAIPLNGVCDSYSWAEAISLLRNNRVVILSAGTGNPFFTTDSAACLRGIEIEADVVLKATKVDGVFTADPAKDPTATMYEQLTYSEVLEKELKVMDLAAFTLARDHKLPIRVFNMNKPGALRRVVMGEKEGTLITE

Molecule: Nc1ncnc2c1ncn2[C@H]1C[C@H](O)[C@@H](COP(=O)(O)OP(=O)(O)OP(=O)(O)O)O1 [dATP]
- phosphate donor ability ([1]; compared with ATP): as good as ATP as phosphate donor

Molecule: O=c1ccn([C@@H]2O[C@H](COP(=O)(O)O)[C@@H](O)[C@H]2O)c(=O)[nH]1 [UMP]
- UMP concentration at which rates were maximal ([1]; absence of GTP, ATP 1 mM, rates decline at higher UMP): 50 to 70 µM
- Km ([1]; absence of GTP, ATP constant (1 mM), read-out: Km for UMP): ~8 µM
- UMP concentration at which saturation was attained ([1]; presence of GTP, ATP 1 mM): 0.2 mM

Molecule: Nc1nc2c(ncn2[C@@H]2O[C@H](COP(=O)(O)OP(=O)(O)OP(=O)(O)O)[C@@H](O)[C@H]2O)c(=O)[nH]1 [GTP]
- degree of activation by GTP (factor) [2]: 3
- activation of UMP kinase (fold) ([1]; 2 mM ATP and 1 mM UTP): ten fold activation
- EC50 ([1]; 2 mM ATP and 1 mM UTP, read-out: half maximum activation concentration): 100 µM
- activity of UMP kinase in the absence of GTP relative to presence ([1]; absence of GTP): twenty times lower
- degree of activation by GTP (factor) [3]: 2

Molecule: Nc1ncnc2c1ncn2[C@@H]1O[C@H](COP(=O)(O)OP(=O)(O)OP(=O)(O)O)[C@@H](O)[C@H]1O [ATP]
- Km ([1]; ATP varied, absence or presence of GTP (0.5 mM), UMP 1 mM, read-out: apparent Km for ATP): 900 µM

Molecule: Nc1nc2c(ncn2[C@@H]2O[C@@H]3COP(=O)(O)O[C@H]3[C@H]2O)c(=O)[nH]1 [cGMP]
- activation of E. coli UMP kinase (in words) (E. coli UMP kinase [4]): significant activation
- best activator (in words) [2]: highest activation and affinity
- nucleotide concentration at which maximal activation is attained [2]: 20 µM

Molecule: O=c1ccn([C@@H]2O[C@H](COP(=O)(O)OP(=O)(O)OP(=O)(O)O)[C@@H](O)[C@H]2O)c(=O)[nH]1 [UTP]
- effect of UTP on UMP kinase activity (in words) [1]: antagonized the effect of GTP; also recorded: inhibits
- IC50 ([1]; at lower concentration of UMP (50 μM), read-out: I50 of UTP inhibition): 50 µM
- Km ([1]; presence of GTP, ATP 1 mM, without inhibition by excess of UMP, read-out: apparent Km for UTP): 30 µM
- half maximal inactivation temperature ([5]; in the presence of UTP): over 70 °C
- stabilization of UMP kinase activity on storage (in words) [6]: stabilized considerably
- Tm [7]: 67 °C

Molecule: Nc1nc2c(ncn2[C@@H]2O[C@H](COP(=O)(O)OP(=O)(O)NP(=O)(O)O)[C@@H](O)[C@H]2O)c(=O)[nH]1 [GMP-PNP]
- activation of UMP kinase by guanine nucleotides (in words) [1]: can activate at significant rates

Molecule: Nc1nc2c(ncn2[C@H]2C[C@H](O)[C@@H](COP(=O)(O)OP(=O)(O)OP(=O)(O)O)O2)c(=O)[nH]1 [dGTP]
- activation of UMP kinase by guanine nucleotides (in words) [1]: effective but with lower affinities and extent of activation; also recorded: can activate at significant rates

Molecule: bovine serum albumin: protein additive tested as stabilizer
- stabilization of UMP kinase activity on storage (in words) [6]: ineffective

Molecule: O=C(O)CN(CCN(CC(=O)O)CC(=O)O)CC(=O)O [EDTA]
- stabilization of UMP kinase activity on storage (in words) [6]: ineffective

Molecule: Nc1nc2c(ncn2[C@@H]2O[C@H](COP(=O)(O)O)[C@@H](O)[C@H]2O)c(=O)[nH]1 [GMP]
- activation of E. coli UMP kinase (in words) (E. coli UMP kinase [4]): significant activation; also recorded: activated
- activation of UMP kinase by guanine nucleotides (in words) [1]: totally ineffective; also recorded: insensitive

Molecule: Nc1nc2c(ncn2[C@@H]2O[C@H](CO)[C@@H](O)[C@H]2O)c(=O)[nH]1 [guanosine]
- activation of E. coli UMP kinase (in words) (E. coli UMP kinase [4]): significant activation

B1: UMP kinase from E. coli: comparison enzyme, bacterial UMP kinase from E. coli (protein, UniProt P0A7E9 2-241, looked up)
Uridylate kinase: ATNAKPVYKRILLKLSGEALQGTEGFGIDASILDRMAQEIKELVELGIQVGVVIGGGNLFRGAGLAKAGMNRVVGDHMGMLATVMNGLAMRDALHRAYVNARLMSAIPLNGVCDSYSWAEAISLLRNNRVVILSAGTGNPFFTTDSAACLRGIEIEADVVLKATKVDGVFTADPAKDPTATMYEQLTYSEVLEKELKVMDLAAFTLARDHKLPIRVFNMNKPGALRRVVMGEKEGTLITE
- specific activity (E. coli UMP kinase [8]): 150 μmol/min^−1/mg of protein^−1

B2: UMP kinase from B. subtilis: recombinant pyrH gene product of B. subtilis overproduced in E. coli, hexamer (protein)
chain: T1 sequence (O31749 1-240)
- specific activity of the recombinant enzyme ([1]; 2 mM ATP, 1 mM UMP): 25 units/mg of protein
- specific activity of purified recombinant protein ([1]; "standard" assay conditions): 26 U/mg of protein
- specific activity of the purified enzyme ([1]; in the presence of GTP): 25 μmol/min^−1/mg of protein^−1
- half maximal inactivation temperature ([5]; in the absence of UTP): 42 °C
- initial UMP kinase activity recovered after storage ([6]; after 24 h, crude extract without UTP, room temperature, +4° C. or frozen): 15%
- stability in the absence of UTP (in words) ([6]; irrespective of storage temperature (+4° C., −20° C. or −80° C.)): unstable in the absence of the nucleotide
